Legend:
FIMMI = assay: Example II: in-water applied weed control, transplanted paddy rice, greenhouse; format: in vivo, Fimbristylis miliacea (L.) Vahl (globe fringerush); conditions: 19 DAA
Protocol: (§1) Weed seeds or nutlets of the desired test plant species were planted in puddled soil (mud) prepared by mixing a shredded, non-sterilized mineral soil (50.5 percent silt, 25.5 percent clay, and 24 percent sand, with a pH of about 7.6 and an organic matter content of about 2.9 percent) and water at a 1:1 volumetric ratio. The prepared mud was dispensed in 365 mL aliquots into 16-ounce (oz.) non-perforated plastic pots with a surface area of 86.59 square centimeters (cm^2) leaving a headspace of 3 centimeters (cm) in each pot. Mud was allowed to dry overnight prior to planting or transplanting. Rice seeds were planted in Sun Gro MetroMix® 306 planting mixture, which typically has a pH of 6.0 to 6.8 and an organic matter content of about 30 percent, in plastic plug trays. Seedlings at the second or third leaf stage of growth were transplanted into 840 mL of mud contained in 32-oz. non-perforated plastic pots with a surface area of 86.59 cm^2 4 days prior to herbicide application. The paddy was created by filling the headspace of the pots with 2.5 to 3 cm of water. When required to ensure good germination and healthy plants, a fungicide treatment and/or other chemical or physical treatment was applied. The plants were grown for 4-22 days in a greenhouse with an approximate 14 hr photoperiod which was maintained at about 29′C during the day and 26° C. during the night. Nutrients were added as Osmocote® (19:6:12, N:P:K+ minor nutrients) at 2 g per 16-oz. pot and 4 g per 32-oz. pot. Water was added on a regular basis to maintain the paddy flood, and supplemental lighting was provided with overhead metal halide 1000-Watt lamps as necessary. The plants were employed for testing when they reached the first through fourth true leaf stage.
(§2) Treatments consisted of the acid or esters of 4-amino-3-chloro-5-fluoro-6-(4-chloro-2-fluoro-3-methoxy-phenyl)pyridine-2-carboxylic acid (compound A) each formulated as an SC (suspension concentrate) and various herbicidal components alone and in combination. Forms of compound A were applied on an acid equivalent basis.
(§3) The herbicidal components were applied on an active ingredient basis and included very long chain fatty acid (VLCFA) synthesis-inhibiting and fatty acid/lipid synthesis-inhibiting herbicides acetochlor (technical grade material), acetochlor+dichlormid formulateded as Topnotch®, pretilachlor (technical grade material), butachlor formulated as Butachlor EC, fentrazamide formulated as Fentrazamide EC, thiobencarb formulated as Bolero® 8EC, cafenstrole formulated as Himeadow® WP or Lapost® Flowable, benfuresate formulated as Full Shot®, anilofos (technical grade material), mefenacet (technical grade material), molinate (technical grade material), and thenylchlor (technical grade material).
(§4) Treatment requirements for each compound or herbicidal component were calculated based upon the rates being tested, the concentration of active ingredient or acid equivalent in the formulation, an application volume of 2 mL per component per pot, and an application area of 86.59 cm^2 per pot.
(§5) For formulated compounds, a measured amount was placed in an individual 100 or 200 mL glass vial and was dissolved in a volume of 1.25% (v/v) Agri-Dex® crop oil concentrate to obtain application solutions.
(§6) For technical grade compounds, a weighed amount was placed in an individual 100 to 200 mL glass vial and was dissolved in a volume of acetone to obtain concentrated stock solutions. […] The concentrated stock solutions obtained were diluted with an equivalent volume of an aqueous mixture containing 2.5% (v/v) crop oil concentrate so that the final application solutions contained 1.25% (v/v) crop oil concentrate.
(§7) Applications were made by injecting with a pipetter appropriate amounts of the application solutions, individually and sequentially, into the aqueous layer of the paddy. Control plants were treated in the same manner with the solvent blank. […]

ECHOR = assay: as above; format: in vivo, Echinochloa oryzoides (Ard.) Fritsch (early watergrass); conditions: for Visual Weed Control ECHOR Obs: 19 DAA
Protocol: as §1, §2, §3, §4, §5, §6, §7

CYPRO = assay: as above; format: in vivo, Cyperus rotundus L. (purple nutsedge); conditions: 19 DAA
Protocol: as §1, §2, §3, §4, §5, §6, §7

ECHCG [1] = assay: as above; format: in vivo, Echinochloa crus-galli (L.) Beauv. (barnyardgrass); conditions: 100 gai/ha, 19 DAA
Protocol: as §1, §2, §3, §4, §5, §6, §7

ECHCO = assay: Example I: postemergence foliar-applied weed control, greenhouse; format: in vivo, Echinochloa colona (L.) Link (junglerice); conditions: 20 DAA
Source text: (§8) Seeds or nutlets of the desired test plant species were planted in a soil matrix prepared by mixing a loam or sandy loam soil (e.g., 28.6 percent silt, 18.8 percent clay, and 52.6 percent sand, with a pH of about 5.8 and an organic matter content of about 1.8 percent) and calcareous grit in an 80 to 20 ratio. The soil matrix was contained in plastic pots with a volume of 1 quart and a surface area of 83.6 square centimeters (cm^2). When required to ensure good germination and healthy plants, a fungicide treatment and/or other chemical or physical treatment was applied. The plants were grown for 8-22 days in a greenhouse with an approximate 14 hr photoperiod which was maintained at about 29° C. during the day and 26° C. during the night. Nutrients (Peters Excel® 15-5-15 5-Ca 2-Mg and iron chelate) were applied in the irrigation solution as needed and water was added on a regular basis. Supplemental lighting was provided with overhead metal halide 1000-Watt lamps as necessary. The plants were employed for testing when they reached the first through fourth true leaf stage.
as §2, with “(Compound A),” for “(compound A)”, “concentrate),” for “concentrate)”
(§9) Other herbicidal components were applied on an active ingredient basis and included very long chain fatty acid (VLCFA) synthesis-inhibiting and fatty acid/lipid synthesis-inhibiting herbicides acetochlor (technical grade material), acetochlor+dichlormid formulated as Topnotch®, pretilachlor (technical grade material), butachlor formulated as Butachlor EC, fentrazamide formulated as Fentrazamide EC, thiobencarb formulated as Bolero® 8EC, cafenstrole formulated as Himeadow® WP or Lapost® Flowable, benfuresate formulated as Full Shot®, dimethenamid-P formulated as Outlook®, indanofan (technical grade material), flufenacet formulated as Define® DF, mefenacet (technical grade material), S-metolachlor formulated as Dual® II Magnum, pethoxamid formulated as Successor® 600, and pyroxasulfone (technical grade material).
(§10) Treatment requirements were calculated based upon the rates being tested, the concentration of active ingredient or acid equivalent in the formulation, and a 12 mL application volume at a rate of 187 L/ha.
(§11) For treatments comprised of formulated compounds, measured amounts of compounds were placed individually in 25 mL glass vials and diluted in a volume of 1.25% (v/v) Agri-Dex® crop oil concentrated to obtain 12× stock solutions. […] Application solutions were prepared by adding an appropriate amount of each stock solution (e.g., 1 mL) and diluted to the appropriate final concentrations with the addition of 10 mL of an aqueous mixture of 1.25% (v/v) crop oil concentrate so that the final spray solutions contained 1.25+/−0.05% (v/v) crop oil concentrate.
(§12) For treatments comprised of technical compounds, weighed amounts can be placed individually in 25 mL glass vials and dissolved in a volume of 97:3 v/v acetone/DMSO to obtain 12× stock solutions. […] Application solutions can be prepared by adding an appropriate amount of each stock solution (e.g., 1 mL) and diluted to the appropriate final concentrations with the addition of 10 mL of an aqueous mixture of 1.5% (v/v) crop oil concentrate so that the final spray solutions contain 1.25% (v/v) crop oil concentrate. When technical materials are used, the concentrated stock solutions can be added to the spray solutions so that the final acetone and DMSO concentrations of the application solutions are […], respectively. […]

BRAPP = assay: Example I: postemergence foliar-applied weed control, direct seeded rice weeds, greenhouse; format: in vivo; conditions: 20 DAA
Source text: as §8
as §2, with “(Compound A),” for “(compound A)”, “concentrate),” for “concentrate)”
as §9, §10, §11, §12

LEFCH = assay: Example I: postemergence foliar-applied weed control, greenhouse; format: in vivo, Leptochloa chinensis (L.) Nees (Chinese sprangletop); conditions: 20 DAA
Source text: as §8
as §2, with “(Compound A),” for “(compound A)”, “concentrate),” for “concentrate)”
as §9, §10, §11, §12

DIGSA = assay: as above; format: in vivo, Digitaria sanguinalis (L.) Scop. (large crabgrass); conditions: 20 DAA
Source text: as §8
as §2, with “(Compound A),” for “(compound A)”, “concentrate),” for “concentrate)”
as §9, §10, §11, §12

ECHCG [2] = assay: as above; format: in vivo, Echinochloa crus-galli (L.) Beauv. (barnyardgrass); conditions: 20 DAA
Source text: as §8
as §2, with “(Compound A),” for “(compound A)”, “concentrate),” for “concentrate)”
as §9, §10, §11, §12

S-[2-[(4-chlorophenyl)(1-methylethyl)amino]-2-oxoethyl]O,O-dimethyl phosphorodithioate [Anilofos]
Visual Weed Control FIMMI Obs (FIMMI; 100 gai/ha): 0% | Visual Weed Control FIMMI Obs (FIMMI; 200 gai/ha): 0% | Visual Weed Control FIMMI Obs (FIMMI; 400 gai/ha): 10% | Visual Weed Control ECHOR Obs (ECHOR; 100 gai/ha): 40% | Visual Weed Control ECHOR Obs (ECHOR; 200 gai/ha): 80% | Visual Weed Control CYPRO Obs (CYPRO; 100 gai/ha): 0% | Visual Weed Control CYPRO Obs (CYPRO; 200 gai/ha): 0% | Visual Weed Control CYPRO Obs (CYPRO; 400 gai/ha): 0% | Visual Weed Control ECHCG Obs (ECHCG [1]): 20%

CCN(C(=O)n1nnn(-c2ccccc2Cl)c1=O)C1CCCCC1 [Fentrazamide, 4-(2-chlorophenyl)-N-cyclohexyl-N-ethyl-4,5-dihydro-5-oxo-1H-tetrazole-1-carboxamide]
Visual Weed Control Obs (ECHCO; 16.88 gai/ha): 0% | Visual Weed Control Obs (ECHCO; 33.75 gai/ha): 15% | Visual Weed Control Obs (ECHCO; 67.5 gai/ha): 10% | Visual Weed Control Obs (BRAPP; 16.88 gai/ha): 0% | Visual Weed Control Obs (BRAPP; 33.75 gai/ha): 0% | Visual Weed Control Obs (BRAPP; 67.5 gai/ha): 55% | Visual Weed Control Obs (LEFCH; 33.75 gai/ha): 0% | Visual Weed Control Obs (LEFCH; 67.5 gai/ha): 0% | Visual Weed Control Obs (DIGSA; 33.75 gai/ha): 0% | Visual Weed Control Obs (DIGSA; 67.5 gai/ha): 30% | Visual Weed Control Obs (ECHCG [2]; 16.88 gai/ha): 0% | Visual Weed Control Obs (ECHCG [2]; 33.75 gai/ha): 0% | Visual Weed Control Obs (ECHCG [2]; 67.5 gai/ha): 20% | Visual Weed Control Obs (ECHCG [2]; 75 gai/ha): 0% | Visual Weed Control Obs (ECHCG [2]; 150 gai/ha): 5% | Visual Weed Control Obs (ECHCG [2]; 300 gai/ha): 13% | Visual Weed Control (%) - 21 DAA ECHOR Obs (ECHOR; 50 gai/ha): 50%

Reference: US20130310256A1, “HERBICIDAL COMPOSITIONS COMPRISING 4-AMINO-3-CHLORO-5-FLUORO-6-(4-CHLORO-2-FLUORO-3-METHOXYPHENYL) PYRIDINE-2-CARBOXYLIC ACID OR A DERIVATIVE THEREOF AND VLCFA AND LIPID SYNTHESIS INHIBITING HERBICIDES” (DOW AGROSCIENCES LLC, priority 2008, published 2013)
